Reference: patent publication US20150064221A1, “COMPOUNDS HAVING IMMUNOMUDULATOR ACTIVITY” (priority 2012, published 2015)
Read-outs that look alike come from different tables or passages of the source.

Legend:
[1] = Twenty-eight day toxicology study in dogs; format: in vivo; conditions: 28 days, highest dose 100 mg/kg/day
Procedure: (§1) Twenty-eight day toxicology studies were performed in both mice and dogs with increasing concentration to achieve toxicity. The following are the results of those studies.

[2] = tested on: endotoxin-induced uveitis; assay: Endotoxin-induced uveitis (EIU); format: in vivo, Lewis rats
Procedure: Rats were treated with VGX-1027 at 30 minutes (A) and 6 and 12 hours (B) after LPS injection […]). […] were evaluated 16 hours post LPS injection. Dexamethasone (1 mg/kg) was administered as a positive control. *p<0.0001 vs. vehicle.
Chronic intraocular inflammation denotes a heterogeneous group of diseases that is a leading cause of acquired blindness in adults. Uveitis refers to inflammation of the uvea, which is the vascular tunic or middle coat of the eye, and is responsible for approximately 3% of blindness in the United States. Unlike other autoimmune conditions with known etiologies, uveitis manifests in a number of inflammatory syndromes including Crohn's disease, Behcet's disease, sarcoidosis, and others (Yeh et al., Semin. Immunopathol., (30) 145-164 (2008)). To study the possible utility of VGX-1027 in treating ocular inflammatory conditions, we injected LPS into footpads of Lewis Rats to induce uveitis. After 16 hours post LPS injection, the rats were sacrificed, and their eyes and aqueous humor were collected to study serological, immunological, and histological signs of EIU. The development of EIU was graded on the following scale: (0) no inflammatory reaction; (1) discrete dilatation of the iris and conjunctival vessels; (2) moderate dilatation of the iris and conjunctival vessels; (3) intense iridal hyperaemia with flare in anterior chamber; and (4) same clinical signs as grade 3 plus the presence of fibrinous exudate in the pupillary area with intense flare in the anterior chamber.

[3] = tested on: oxazolone-induced hypersensitivity; assay: Oxazolone-induced dermatitis; format: in vivo, mice
COX-2 = COX-2 (Homo sapiens, UniProt P35354); assay: COX-2 activity; format: biochemical
Sequence of COX-2 (P35354 18-604): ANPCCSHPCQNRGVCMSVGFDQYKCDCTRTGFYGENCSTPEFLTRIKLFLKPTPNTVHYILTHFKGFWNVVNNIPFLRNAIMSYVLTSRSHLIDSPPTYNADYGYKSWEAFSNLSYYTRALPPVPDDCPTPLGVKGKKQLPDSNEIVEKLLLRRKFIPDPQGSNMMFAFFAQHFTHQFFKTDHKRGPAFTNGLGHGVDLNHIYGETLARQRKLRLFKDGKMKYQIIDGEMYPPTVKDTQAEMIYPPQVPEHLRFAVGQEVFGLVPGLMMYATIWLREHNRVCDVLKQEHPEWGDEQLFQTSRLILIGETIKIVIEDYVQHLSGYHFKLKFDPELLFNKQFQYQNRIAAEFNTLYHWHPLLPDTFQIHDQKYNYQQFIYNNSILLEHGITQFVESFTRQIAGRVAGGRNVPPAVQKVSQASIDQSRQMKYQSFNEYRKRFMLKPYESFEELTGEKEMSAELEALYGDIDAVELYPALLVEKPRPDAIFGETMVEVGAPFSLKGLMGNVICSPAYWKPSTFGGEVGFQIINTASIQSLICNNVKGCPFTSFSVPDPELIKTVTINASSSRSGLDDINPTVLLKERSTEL
Procedure: (§2) The highest plasma concentrations generally occurred in 1-2 hours. […] The highest level of inhibition was ˜35% for 2C19 at a 30 μM concentration. […] Lastly, VGX-1027 is stable in human liver S9 fractions (with phase 1 and 2 cofactors) with t1/2>90 minutes, which indicates a low likelihood of metabolism in the liver.

[4] = Placebo-controlled ascending multiple-dose study in healthy subjects; format: in vivo, human; conditions: for Tmax / Cmax / AUC(0-t) / AUC: human, in vivo, oral; for Cmax / AUC(0-t) / AUC: Geo Mean; for AUC(0-t): read-out: AUC (0-24); for AUC: read-out: AUC (AUC to 12 hours)
Procedure: A placebo-controlled, ascending multiple-dose study was also performed to evaluate the safety and pharmacokinetics of VGX-1027 in healthy human subjects. The primary outcome to be measure was the safety as determined by vital signs, physical examinations, ECGs, clinical laboratory evaluations, and adverse event reporting. The secondary outcome measured was the pharmacokinetics on day 1 and at steady state-on day 5. Study was performed upon 4 groups of subjects: group 1: 40 mg of VGX-1027 QD; group 2: 100 mg of VGX-1027 QD; group 3: 200 mg of VGX-1027 QD; group 4: 200 mg of VGX-1027 BID. The pharmacokinetics is provided in Table 7, below, along with data from the single dose study: […]

[5] = tested on: enterobacterial antigen-reactive CD4+CD25− T cells; conditions: in vitro; Mangano et al. 2008; cited from earlier work
[6] = Twenty-eight day toxicology study in mice; format: in vivo; conditions: 28 days, highest dose 500 mg/kg/day
Procedure: as §1

[7] = tested on: 30 primary molecular targets; assay: Radioligand binding assay (MDS Pharma HitProfiling Screen); conditions: 30 targets, concentrations up to 10 μM; significant = ≧50% inhibition or stimulation
Procedure: VGX-1027 was negative in a radioligand binding assay (MDS Pharma HitProfiling Screen) that tested 30 primary molecular targets at concentrations up to 10 μM. No significant response (≧50% inhibition or stimulation for Biochemical assays) were noted.

Purified CD4 T cells = assay: Th17 T cell development from purified CD4 T cells; format: cell-based; conditions: 10 mM
Procedure: Purified CD4 T cells (CD3^+ CD4^+ CD45RA^+ CD25^− HLA−DR^−) were incubated with 10 μg/ml of IL-2, 10 ng/mL of IL-1β, 10 ng/ml of IL-23, 1 ug/ml of anti-IL-4, 1 ug/mL of anti-IFNγ and anti-CD3/CD28 activation beads at a ratio of 1 bead per cell plus TGF-β (1 ng/mL). On day 6, the cells were incubated in the presence of 50 ng/ml of PMA and 500 ng/ml of ionomycin for 5 hours. The cells were analyzed for intracellular staining of IL-17A and IFNγ. (A) FACS analysis of CD4+ and IL-17+ cells with the percentage shown in the upper right quadrant. (B) Mean Fluorescent Intensity (MFI) of IL-17+ T cells. (C) Concentration of IL-17 in the media. VGX-1027 concentration was 10 mM.
Although inhibition of Th17-promoting cytokine production from DCs is likely to contribute to the decrease of Th17 T cell development, the potential limitation with this mechanism is that other cells may be compensating for the production of Th17-promoting cytokines. Therefore, the direct effect of VGX-1027 was tested on the differentiation of naïve CD4 T cells into Th17 T cells. In vitro generation of Th17 T cells requires TGF-β, IL-1β, IL-6, and either IL-21 or IL-23. Th17 T cells was assessed with purified CD4 T cells (CD3+ CD4+ CD45RA+ CD25− HLA−DR−) with or without VGX-1027.

Oral absorption in dogs = format: in vivo
Procedure: as §2

[8] = elicitation phase: one hour after second oxazolone exposure
[9] = treated during or before the sensitization phase
[10] = 100 mg, Multiple Dose (Day 1) 100 mg
[11] = 100 mg, Multiple Dose (Day 5) 100 mg
[12] = 200 mg, 200 mg BID, first dose, Day 1
[13] = 200 mg, 200 mg BID, first dose, Day 5
[14] = 200 mg, Multiple Dose (Day 1) 200 mg
[15] = 200 mg, Multiple Dose (Day 5) 200 mg

O=C(O)CC1CC(c2ccccc2)=NO1 (centres unmarked) [VGX-1027, 3-phenyl-4,5-dihydro-5-isoxazoleacetic acid]
early deaths [1]: 3 | inflammatory cytokines in the aqueous humor ([2]; LPS-induced increase): decreased | protein in the aqueous humor ([2]; LPS-induced increase): decreased | clinical inflammation score ([2]; administered 30 minutes after LPS): significantly lower | clinical inflammation grade ([2]; administered 12 hours post LPS): not observed | infiltration of cells into the iris ciliary body ([2]; rat, in vivo): decreased | ear thickness [3, 8]: significant decrease | ear weight [3, 8]: not in weight | ear thickness [3, 9]: significantly suppressed | ear weight [3, 9]: significantly suppressed | inhibition of COX-2 activity (COX-2): no significant inhibition | urine drug levels ([4]; CAT002 urine PK analysis): high drug levels in urine | Tmax [4, 10]: 1 h | Cmax [4, 10]: 7570 ng/mL | AUC(0-t) [4, 10]: 31300 ng·h/mL | Tmax [4, 11]: 1.5 h | Cmax [4, 11]: 6760 ng/mL | AUC(0-t) [4, 11]: 23200 ng·h/mL | Tmax [4, 12]: 1 h | Cmax [4, 12]: 13100 ng/mL | AUC [4, 12]: 58200 ng·h/mL | Tmax [4, 13]: 1.5 h | Cmax [4, 13]: 16800 ng/mL | AUC [4, 13]: 70400 ng·h/mL | Tmax [4, 14]: 1.3 h | Cmax [4, 14]: 15700 ng/mL | AUC(0-t) [4, 14]: 78100 ng·h/mL | Tmax [4, 15]: 2 h | Cmax [4, 15]: 14100 ng/mL | AUC(0-t) [4, 15]: 65700 ng·h/mL | dosing toxicities ([4]; up to 200 mg bid for 5 days): No dosing toxicities were observed | proliferation of enterobacterial antigen-reactive CD4+CD25− T cells [5]: inhibits | toxicology findings [6]: notable changes found in kidneys, liver, spleen, testis, epidydimus and bladder | radioligand binding result [7]: negative | IL-17 expressed in a Th17 T cell (MFI) (Purified CD4 T cells): decrease | IL-17 in the culture media (Purified CD4 T cells): decrease | oral absorption (Oral absorption in dogs): rapidly absorbed | time of highest plasma concentrations (Oral absorption in dogs): 1 to 2 h
